Data reported in the CheMixHub viscosity set.

Test: xn = mol fraction of the nth substance listed

CC(C)CCl + CC(C)CO
viscosity [mPa·s], 101.33 kPa
Settings	x1 = 0.1154	x1 = 0.2046	x1 = 0.3086	x1 = 0.4017	x1 = 0.4943	x1 = 0.6102	x1 = 0.7057	x1 = 0.8002	x1 = 0.8978
298.15 K	2.364	1.728	1.287	1.019	0.8243	0.6718	0.5775	0.5104	0.4593
313.15 K	1.56	1.191	0.9221	0.7582	0.6325	0.5324	0.4679	0.4215	0.3866

Cc1nc(C)c(C)[nH]1 + O
viscosity [mPa·s], 100 kPa
Settings	x1 = 0.0179	x1 = 0.0393	x1 = 0.0655	x1 = 0.0983	x1 = 0.141
298.15 K	1.317	2.01	3.12	5.27	9.35
303.15 K	1.157	1.754	2.71	4.41	7.38
313.15 K	0.944	1.384	2.08	3.24	4.87
323.15 K	0.774	1.1	1.598	2.4	3.44

O=[N+]([O-])c1ccccc1 + CCOC(C)=O
viscosity [mPa·s], 101 kPa
Settings	298.15 K	308.15 K
x1 = 0.1753	0.582	–
x1 = 0.4777	0.889	–
x1 = 0.6887	1.204	–
x2 = 0.0466	1.71	1.482
x2 = 0.1486	1.535	1.346
x2 = 0.2512	1.364	1.208
x2 = 0.3117	1.204	–
x2 = 0.3496	1.206	1.077
x2 = 0.4483	1.057	0.95
x2 = 0.4935	0.992	0.893
x2 = 0.5223	0.889	–
x2 = 0.5538	0.909	0.821
x2 = 0.6497	0.785	0.711
x2 = 0.7513	0.666	0.604
x2 = 0.8247	0.582	–
x2 = 0.8488	0.564	0.512
x2 = 0.9411	0.478	0.433

CCCCCCC + CO
298.15 K
Settings	viscosity [mPa·s]
101 kPa, x1 = 0.01	0.535
101 kPa, x1 = 0.02	0.5317
101 kPa, x1 = 0.03	0.5293
101 kPa, x1 = 0.04	0.5277
101 kPa, x1 = 0.05	0.5257
101 kPa, x1 = 0.06	0.5246
101 kPa, x1 = 0.08	0.5247
101 kPa, x1 = 0.09	0.5214
101.33 kPa, x2 = 0.0171	0.401
101.33 kPa, x2 = 0.0593	0.401
101.33 kPa, x2 = 0.0865	0.404
101.33 kPa, x2 = 0.1148	0.403
101.33 kPa, x2 = 0.9043	0.548
101.33 kPa, x2 = 0.9241	0.549
101.33 kPa, x2 = 0.9474	0.552
101.33 kPa, x2 = 0.9653	0.554
101.33 kPa, x2 = 0.9765	0.553

COCC(C)O (stereo not drawn) + CS(C)=O
viscosity [mPa·s], 101 kPa
Settings	298.15 K	303.15 K	308.15 K	313.15 K	318.15 K
x1 = 0.0436	1.79	1.54	1.47	1.39	1.31
x1 = 0.0879	1.79	1.54	1.47	1.38	1.3
x1 = 0.1327	1.78	1.53	1.46	1.38	1.3
x1 = 0.1781	1.78	1.53	1.46	1.37	1.29
x1 = 0.2242	1.78	1.53	1.46	1.37	1.29
x1 = 0.2709	1.77	1.53	1.45	1.36	1.29
x1 = 0.3183	1.77	1.52	1.45	1.36	1.28
x1 = 0.3663	1.77	1.52	1.45	1.35	1.28
x1 = 0.415	1.76	1.52	1.44	1.35	1.28
x1 = 0.4644	1.75	1.51	1.43	1.34	1.27
x1 = 0.5145	1.75	1.51	1.43	1.34	1.26
x1 = 0.5653	1.75	1.5	1.42	1.33	1.25
x1 = 0.6169	1.73	1.49	1.41	1.31	1.24
x1 = 0.6692	1.72	1.47	1.39	1.29	1.22
x1 = 0.7224	1.7	1.45	1.37	1.27	1.2
x1 = 0.7762	1.67	1.42	1.34	1.24	1.17
x1 = 0.8864	1.62	1.36	1.28	1.18	1.11
